Data taken from patent US20210222208A1, “SUGAR-DERIVED STIMULANT FOR ENHANCEMENT OF AEROBIC AND ANAEROBIC FERMENTATION PERFORMANCE” (priority 2018, published 2021).

Test system: S. cerevisiae M11205
Type: cell-based, Saccharomyces cerevisiae

## OCCCCO [1,4-butanediol]
  Contribution to enhancement at higher sugar concentrations: no distinct contribution for enhancement
  Contribution to stimulant properties versus control without addition: not itself a contributor to the stimulant properties
  Day 5 % of Theoretical Max. Ethanol Yield: 88.8%
  Effect on fermentation rates: does not create the increased fermentation rates
